This series in a line: UV absorption spectrum in ethanol. In kind it is physicochemical. The note with it: for UV E1% / UV εmax: at λmax.

Regarding `C[Si](C)(C)COC(=O)/C(C#N)=C\C=C(c1ccccc1)c1ccccc1` [Example 3, monotrimethylsilanylmethyl ester of 2-cyano-5,5-diphenyl-2,4-pentadienoic acid], the “UV λmax” value is recorded as 360 nm, the “UV E1%” value is listed as 800 and the “UV εmax” value is listed as 28 880.

`C[Si](C)(C)COC(=O)C(=CC=C(c1ccccc1)c1ccccc1)C(=O)OC[Si](C)(C)C` [Example 1]: the “UV λmax” value is reported as 333 nm, the “UV E1%” value is given as 614 and the “UV εmax” value is 28 610.

Regarding `CCOC(=O)/C(=C/C=C(c1ccccc1)c1ccccc1)C(=O)OC[Si](C)(C)C` [Example 2], the “UV λmax” value came out at 334 nm, the “UV E1%” value is recorded as 692 and the “UV εmax” value is reported as 28 270.
